2 compounds from US11278555B2, “Combinational therapies for treatment of cancer comprising a bacteriochlorophyll derivative” (Yeda Research and Development Co. Ltd., priority 2016, dated 2022) can be followed below.

The structures appear in SMILES notation.

For assay [1], the system named is orthotopic 4T1-Luc tumors. Put plainly: STL-6014 PDT and metronomic Gemzar in mice bearing 4T1-Luc tumors in the mammary pad (Scheme 1): primary tumor, survival, lung metastases, re-challenge. The class given is in vivo, Balb/c mice. The method, then:
• (i) Bacteriochlorophyll Derivatives—The Bchl derivatives and RGD-conjugates thereof were provided by Steba Biotech (Rehovot, Israel). […] Concentration was verified by spectrophotometric measurement. STL-7012 was provided as dipotassium salt. Working solution was prepared by dissolving STL-7012 K^+ salt in 5% mannitol solution (1 mg/ml). […] WST11 was supplied as a powder and kept in the dark at −20° C. Stock was prepared by dissolving WST11 in DDW containing 5% glucose and 0.67% mannitol, aliquoted and lyophilized. Working solution was reconstituted with DDW and the concentration of solution was confirmed spectrophotometrically. Alternatively, Clinical WST11 (batch: P00611, and 10-130611) was supplied as lyophilized formulation. Material was dissolved in 5% dextrose, aliquoted and stored at −20° C. At the day of treatment the aliquot was thawed, filtered and the concentration of solution was confirmed spectrophotometrically. • (ii) Chemotherapeutic drugs preparation and storage—Gemcitabine (GEM, Gemzar®, Lilly) was purchased from a local pharmacy as a powder, dissolved in saline to a concentration of 38 mg/ml, aliquoted and stored at −20° C. Aliquots were thawed, diluted with saline to a desired concentration and used on the same day at a dose of 75 mg/kg. Cyclophosphamide (CTX, Endoxan®, Baxter Oncology Gmbh, Germany) was purchased from a local pharmacy. A stock solution of 20 mg/ml was prepared by dissolving in 0.9% NaCl, aliquoted and stored at −20° C. Aliquots were thawed, diluted with saline if needed to a desired concentration and used on the same day prepared at indicated doses. • (iii) Murine cell lines—Mammary luciferase (luc)-labeled 4T1 cell line (4T1-Luc) was a kind gift from Dr. Zvi Granot (Faculty of Medicine, The Hebrew University of Jerusalem, Israel); melanoma B16-F10 cell line was obtained from the American Type Culture Collection (ATCC, Manassas, Va.); bladder MB49 cell line was a kind gift from James Allison (MSKCC, New York, USA), and luc-labeled MB49-cell line was established using the murine stem cell virus (MSCV)-puromycin-luc-GFP construct (kindly provided by Dr. Emily Cheng, Human Oncology and Pathogenesis Program, MSKCC). 4T1 and MB49 cells were maintained in DMEM medium and B16-F10 cells in RPMI medium supplemented with 1 mmol/L sodium pyruvate, 10% fetal calf serum (FCS), 250 μg/ml hygromycin, 0.06 mg/ml penicillin and 0.1 mg/ml streptomycin. The cells were grown as monolayer at 37° C. in a humidified atmosphere (5% CO2, 95% air). • (iv) Murine tumor models—Female, Balb/c mice (6-8 week old) were grafted either subcutaneously (s.c.) into the right hind leg or orthotopically with 1×10^6 4T1 cells suspended in 50 or 1000 PBS. For the rechallenge study, 2×10^5 4T1 cells were orthotopically grafted. For bladder cancer model, 5×10^4 of MB49 or MB49-luciferase cell line were s.c. injected into the right flank of C57B/6 male mice (7-8 weeks old, Taconic, Hudson, N.Y.) 15 days prior to VTP treatment. For the efficacy study of VTP in immune compromised mice, the same number of MB49 cells was injected in the flank of Rag^−/− on C57B/6 background or C57B/6 male mice (7-8 week old, Jackson Laboratory, Bar Harbor, Me.). […] Whole body imaging of luciferase-transfected tumors and metastases were recorded five minutes following 75 mg Kg^−1 intraperitoneal (i.p.) injection of D-luciferin with respective filter sets. • (vi) PDT treatment protocol: 4T1-Luc cells were grafted in the mammary pad of Balb/c mice. […]

For assay [2], the system named is CD8, Treg, Teff and TCM T cell populations. Put plainly: Adaptive immune response (T cell populations) of mice bearing MB49 tumors. Type of assay: in vivo. The method, then:
• (i) Bacteriochlorophyll Derivatives—The Bchl derivatives and RGD-conjugates thereof were provided by Steba Biotech (Rehovot, Israel). […] Concentration was verified by spectrophotometric measurement. STL-7012 was provided as dipotassium salt. Working solution was prepared by dissolving STL-7012 K^+ salt in 5% mannitol solution (1 mg/ml). […] WST11 was supplied as a powder and kept in the dark at −20° C. Stock was prepared by dissolving WST11 in DDW containing 5% glucose and 0.67% mannitol, aliquoted and lyophilized. Working solution was reconstituted with DDW and the concentration of solution was confirmed spectrophotometrically. Alternatively, Clinical WST11 (batch: P00611, and 10-130611) was supplied as lyophilized formulation. Material was dissolved in 5% dextrose, aliquoted and stored at −20° C. At the day of treatment the aliquot was thawed, filtered and the concentration of solution was confirmed spectrophotometrically. • (ii) Chemotherapeutic drugs preparation and storage—Gemcitabine (GEM, Gemzar®, Lilly) was purchased from a local pharmacy as a powder, dissolved in saline to a concentration of 38 mg/ml, aliquoted and stored at −20° C. Aliquots were thawed, diluted with saline to a desired concentration and used on the same day at a dose of 75 mg/kg. Cyclophosphamide (CTX, Endoxan®, Baxter Oncology Gmbh, Germany) was purchased from a local pharmacy. A stock solution of 20 mg/ml was prepared by dissolving in 0.9% NaCl, aliquoted and stored at −20° C. […] Whole body imaging of luciferase-transfected tumors and metastases were recorded five minutes following 75 mg Kg^−1 intraperitoneal (i.p.) injection of D-luciferin with respective filter sets. • (vi) PDT treatment protocol: 4T1-Luc cells were grafted in the mammary pad of Balb/c mice. […]

The test system of assay [3] is MB49 tumors. Briefly: WST11 VTP, Gemzar and combination in immune compromised Rag1 KO versus WT mice bearing MB49 tumors. The class given is in vivo. The following applies: Kaplan-Meier. The method, then:
• (i) Bacteriochlorophyll Derivatives—The Bchl derivatives and RGD-conjugates thereof were provided by Steba Biotech (Rehovot, Israel). […] Concentration was verified by spectrophotometric measurement. STL-7012 was provided as dipotassium salt. Working solution was prepared by dissolving STL-7012 K^+ salt in 5% mannitol solution (1 mg/ml). […] WST11 was supplied as a powder and kept in the dark at −20° C. Stock was prepared by dissolving WST11 in DDW containing 5% glucose and 0.67% mannitol, aliquoted and lyophilized. Working solution was reconstituted with DDW and the concentration of solution was confirmed spectrophotometrically. Alternatively, Clinical WST11 (batch: P00611, and 10-130611) was supplied as lyophilized formulation. Material was dissolved in 5% dextrose, aliquoted and stored at −20° C. […] Whole body imaging of luciferase-transfected tumors and metastases were recorded five minutes following 75 mg Kg^−1 intraperitoneal (i.p.) injection of D-luciferin with respective filter sets. • (vi) PDT treatment protocol: 4T1-Luc cells were grafted in the mammary pad of Balb/c mice. […]

The mark [4] stands for this setting: 120 days follow up, monotherapy.

Regarding `Nc1ccn([C@@H]2O[C@H](CO)[C@@H](O)C2(F)F)c(=O)n1` [Gemzar, Gemcitabine], in assay [1] (setting [4]), the “primary tumor cure” value is listed as “no primary tumor cure” and the “survival compared to control (Kaplan-Meier)” value is on record as “Extended mice survival”. This compound had a primary cure in assay [1] (Gemzar only, 75 mg/kg i.p. metronomic) of 0%.
Regarding `CCC1c2cc3[n-]c(c(CC(=O)OC)c4nc(cc5[n-]c(cc(n2)C1C)c(C(C)=O)c5C)C(C)C4CCC(=O)[O-])c(C(=O)NCCS(=O)(=O)[O-])c3C.[K+].[K+].[Pd+2]` (stereo not shown) [WST11, Palladium 3^1-oxo-15-methoxycarbonylmethyl-rhodobacteriochlorin 13^1-(2-sulfoethyl) amide dipotassium salt], in assay [2] (6 days post treatment), the “CD8 cell population in the spleen, blood and draining lymph nodes” value is “significant elevation”; the “Treg populations (spleen, blood, lymph nodes)” value was “no significant effect”. For the same compound, the “CD8 Tcell/Treg ratio” value in assay [2] (day 6 post VTP) is “no increase”. Further, the “overall survival of immune compromised (Rag1 KO) mice compared with WT mice” value in assay [3] is listed as “statistically significant decrease”.
